# Laboratory results published in PMC10945555, “Improving Activity of New Arylurea Agents against Multidrug-Resistant and Biofilm-Producing Staphylococcus epidermidis” (ACS Medicinal Chemistry Letters, 2024).
# What was measured:
# [1] = system: biofilm-producing Staphylococcus epidermidis strains; assay: Inhibition of biofilm formation (MBIC, resazurin); assay type: cell-based
# Description: After 24 hours incubation each well of
# concentration of 4 mg/mL was added. […]
# [2] = system: biofilm-producing Staphylococcus epidermidis strains; assay: Biofilm eradication (MBEC Assay Kit); assay type: cell-based
# [3] = S. epidermidis ATCC 35984 (Table S4)
smiles,measurement,setting,value
"CC(=O)NC[C@H]1CN(c2ccc(N3CCOCC3)c(F)c2)C(=O)O1 [linezolid, reference compound]",MBIC,[1]; [3],15.6 µg/mL
same,MBIC50,[1]; Table S4 strains,25 µg/mL
same,MBIC90,[1]; Table S4 strains,50 µg/mL
same,MBIC,[1]; clinical strain 1 (Table S4),15.6 µg/mL
same,MBIC,[1]; clinical strain 2 (Table S4),50 µg/mL
same,MBIC,[1]; clinical strain 3 (Table S4),50 µg/mL
same,MBIC,[1]; clinical strain 4 (Table S4),50 µg/mL
same,MBIC,[1]; clinical strain 5 (Table S4),15.6 µg/mL
same,MBIC,[1]; clinical strain 6 (Table S4),15.6 µg/mL
same,MBIC,[1]; clinical strain 7 (Table S4),50 µg/mL
same,MBIC,[1]; clinical strain 8 (Table S4),12.5 µg/mL
same,MBIC,[1]; clinical strain 9 (Table S4),50 µg/mL
same,MBIC,[1]; clinical strain 11 (Table S4),50 µg/mL
same,MBIC,[1]; clinical strain 12 (Table S4),50 µg/mL
same,MBIC,[1]; clinical strain 13 (Table S4),6.25 µg/mL
same,MBIC,[1]; clinical strain 15 (Table S4),50 µg/mL
same,MBIC,[1]; clinical strain 16 (Table S4),15.6 µg/mL
same,MBIC,[1]; clinical strain 17 (Table S4),25 µg/mL
same,MBIC,[1]; clinical strain 19 (Table S4),25 µg/mL
same,MBIC,[1]; clinical strain 21 (Table S4),50 µg/mL
same,MBIC,[1]; clinical strain 22 (Table S4),50 µg/mL
same,MBIC,[1]; clinical strain 23 (Table S4),12.5 µg/mL
same,MBIC,"[1]; clinical strain 25 (Table S4, Figure 2)",12.5 µg/mL
same,MBIC,[1]; clinical strain 26 (Table S4),50 µg/mL
same,MBIC,[1]; clinical strain 27 (Table S4),50 µg/mL
same,MBIC,[1]; clinical strain 28 (Table S4),25 µg/mL
same,MBIC,[1]; clinical strain 29 (Table S4),25 µg/mL
same,MBIC,[1]; clinical strain 30 (Table S4),6.25 µg/mL
same,MBIC,[1]; clinical strain 33 (Table S4),50 µg/mL
same,MBIC,[1]; clinical strain 35 (Table S4),50 µg/mL
same,MBIC,[1]; clinical strain 36 (Table S4),25 µg/mL
same,MBIC,[1]; clinical strain 37 (Table S4),50 µg/mL
same,MBIC,[1]; clinical strain 39 (Table S4),6.25 µg/mL
same,MBIC,[1]; clinical strain 40 (Table S4),25 µg/mL
same,MBIC,[1]; clinical strain 41 (Table S4),50 µg/mL
same,MBIC,[1]; clinical strain 42 (Table S4),50 µg/mL
same,MBIC,[1]; clinical strain 43 (Table S4),25 µg/mL
same,MBIC,[1]; clinical strain 44 (Table S4),25 µg/mL
same,MBIC,[1]; clinical strain 45 (Table S4),50 µg/mL
same,MBIC,[1]; clinical strain 46 (Table S4),50 µg/mL
same,MBIC,[1]; clinical strain 47 (Table S4),25 µg/mL
same,MBIC,[1]; clinical strain 49 (Table S4),25 µg/mL
same,MBIC,[1]; clinical strain 51 (Table S4),50 µg/mL
same,MBIC,[1]; clinical strain 55 (Table S4),50 µg/mL
same,MBIC,[1]; clinical strain 58 (Table S4),50 µg/mL
same,MBIC,[1]; clinical strain 59 (Table S4),50 µg/mL
same,MBIC,[1]; clinical strain 65 (Table S4),50 µg/mL
same,MBIC,[1]; clinical strain 66 (Table S4),25 µg/mL
same,MBIC,[1]; clinical strain 67 (Table S4),50 µg/mL
same,MBIC,[1]; clinical strain 70 (Table S4),50 µg/mL
same,MBIC,[1]; clinical strain 73 (Table S4),15.6 µg/mL
same,MBIC,[1]; clinical strain 74 (Table S4),25 µg/mL
same,MBIC,[1]; clinical strain 75 (Table S4),25 µg/mL
same,MBIC,[1]; clinical strain 78 (Table S4),15.6 µg/mL
same,MBIC,[1]; clinical strain 79 (Table S4),15.6 µg/mL
same,MBEC,[2]; [3],15.6 µg/mL
same,MBEC50,[2]; Table S4 strains,50 µg/mL
same,MBEC90,[2]; Table S4 strains,50 µg/mL
same,MBEC,[2]; clinical strain 1 (Table S4),31.25 µg/mL
same,MBEC,[2]; clinical strain 2 (Table S4),50 µg/mL
same,MBEC,[2]; clinical strain 3 (Table S4),50 µg/mL
same,MBEC,[2]; clinical strain 4 (Table S4),50 µg/mL
same,MBEC,[2]; clinical strain 5 (Table S4),50 µg/mL
same,MBEC,[2]; clinical strain 6 (Table S4),31.25 µg/mL
same,MBEC,[2]; clinical strain 7 (Table S4),50 µg/mL
same,MBEC,[2]; clinical strain 8 (Table S4),15.6 µg/mL
same,MBEC,[2]; clinical strain 9 (Table S4),50 µg/mL
same,MBEC,[2]; clinical strain 11 (Table S4),50 µg/mL
same,MBEC,[2]; clinical strain 12 (Table S4),50 µg/mL
same,MBEC,[2]; clinical strain 13 (Table S4),7.8 µg/mL
same,MBEC,[2]; clinical strain 15 (Table S4),50 µg/mL
same,MBEC,[2]; clinical strain 16 (Table S4),50 µg/mL
same,MBEC,[2]; clinical strain 17 (Table S4),31.25 µg/mL
same,MBEC,[2]; clinical strain 19 (Table S4),31.25 µg/mL
same,MBEC,[2]; clinical strain 21 (Table S4),50 µg/mL
same,MBEC,[2]; clinical strain 22 (Table S4),50 µg/mL
same,MBEC,[2]; clinical strain 23 (Table S4),15.6 µg/mL
same,MBEC,[2]; clinical strain 25 (Table S4),15.6 µg/mL
same,MBEC,[2]; clinical strain 26 (Table S4),50 µg/mL
same,MBEC,[2]; clinical strain 27 (Table S4),50 µg/mL
same,MBEC,[2]; clinical strain 28 (Table S4),50 µg/mL
same,MBEC,[2]; clinical strain 29 (Table S4),50 µg/mL
same,MBEC,[2]; clinical strain 30 (Table S4),7.8 µg/mL
same,MBEC,[2]; clinical strain 33 (Table S4),50 µg/mL
same,MBEC,[2]; clinical strain 35 (Table S4),50 µg/mL
same,MBEC,[2]; clinical strain 36 (Table S4),50 µg/mL
same,MBEC,[2]; clinical strain 37 (Table S4),50 µg/mL
same,MBEC,[2]; clinical strain 39 (Table S4),7.8 µg/mL
same,MBEC,[2]; clinical strain 40 (Table S4),50 µg/mL
same,MBEC,[2]; clinical strain 41 (Table S4),50 µg/mL
same,MBEC,[2]; clinical strain 42 (Table S4),50 µg/mL
same,MBEC,[2]; clinical strain 43 (Table S4),50 µg/mL
same,MBEC,[2]; clinical strain 44 (Table S4),25 µg/mL
same,MBEC,[2]; clinical strain 45 (Table S4),50 µg/mL
same,MBEC,[2]; clinical strain 46 (Table S4),50 µg/mL
same,MBEC,[2]; clinical strain 47 (Table S4),25 µg/mL
same,MBEC,[2]; clinical strain 49 (Table S4),25 µg/mL
same,MBEC,[2]; clinical strain 51 (Table S4),50 µg/mL
same,MBEC,[2]; clinical strain 55 (Table S4),50 µg/mL
same,MBEC,[2]; clinical strain 58 (Table S4),50 µg/mL
same,MBEC,[2]; clinical strain 59 (Table S4),50 µg/mL
same,MBEC,[2]; clinical strain 65 (Table S4),50 µg/mL
same,MBEC,[2]; clinical strain 66 (Table S4),25 µg/mL
same,MBEC,[2]; clinical strain 67 (Table S4),50 µg/mL
same,MBEC,[2]; clinical strain 70 (Table S4),50 µg/mL
same,MBEC,[2]; clinical strain 73 (Table S4),15.6 µg/mL
same,MBEC,[2]; clinical strain 74 (Table S4),25 µg/mL
same,MBEC,[2]; clinical strain 75 (Table S4),50 µg/mL
same,MBEC,[2]; clinical strain 78 (Table S4),15.6 µg/mL
same,MBEC,[2]; clinical strain 79 (Table S4),15.6 µg/mL
